Publication PMC10176470, “Engaging a Non-catalytic Cysteine Residue Drives Potent and Selective Inhibition of Caspase-6” (Journal of the American Chemical Society, 2023)

Columns and labels:
Test in all cases: SILAC proteomics / in-gel fluorescence, competition of probe 13-t labeling by 3a
[1] = target: T1, proteins of HEK293T cells transiently overexpressing caspase-6 (Homo sapiens, UniProt O60506)
T1 sequence (O60506 1-623): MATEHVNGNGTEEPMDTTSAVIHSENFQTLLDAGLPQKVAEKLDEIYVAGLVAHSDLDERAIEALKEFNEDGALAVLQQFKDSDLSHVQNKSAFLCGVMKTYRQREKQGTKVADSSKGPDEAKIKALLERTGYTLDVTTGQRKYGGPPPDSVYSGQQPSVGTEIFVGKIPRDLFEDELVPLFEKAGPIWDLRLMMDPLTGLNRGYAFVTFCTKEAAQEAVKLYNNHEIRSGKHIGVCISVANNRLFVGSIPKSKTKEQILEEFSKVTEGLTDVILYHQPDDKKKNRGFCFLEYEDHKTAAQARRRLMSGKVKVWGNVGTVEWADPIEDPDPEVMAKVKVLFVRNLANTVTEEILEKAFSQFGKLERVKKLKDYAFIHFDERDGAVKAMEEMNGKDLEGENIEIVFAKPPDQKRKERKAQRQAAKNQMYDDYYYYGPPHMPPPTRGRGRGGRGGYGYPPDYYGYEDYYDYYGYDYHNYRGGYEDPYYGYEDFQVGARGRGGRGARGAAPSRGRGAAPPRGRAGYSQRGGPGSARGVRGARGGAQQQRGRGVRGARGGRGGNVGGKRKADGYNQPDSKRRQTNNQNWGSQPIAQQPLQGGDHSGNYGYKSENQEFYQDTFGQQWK
Protocol: (§1) Cells were lysed, and heavy and light SILAC lysates were combined in a 1:1 ratio and subjected to CuAAC reaction with azido-biotin to biotinylate probe-labeled proteins for subsequent capture on streptavidin-coated beads. Bead-bound proteins were split for analysis by in-gel fluorescence and tryptic digestion on-bead for LC–MS/MS analysis.
(§2) SILAC labeling and alkyne probe treatment: HEK293T cells were seeded into 8x 15 cm plates at
(§3) a density of 500,000 cells/plate. 4 of these plates were grown in light SILAC DMEM and 4 were
(§4) grown in heavy SILAC DMEM all containing 10% FBS and 4.5g/L glucose. The next day, all 8
(§5) plates were transfected with a pCMV6-Entry plasmid coding for caspase-6-myc-DDK lacking the
(§6) prodomain. After 24 hours, media was replaced with fresh SILAC growth media containing 4.5 g/L
(§7) glucose and 3% FBS. 24 hours later the plates were treated with probe and inhibitor for 1 hours as
(§8) follows: 2 of the light plates were treated with vehicle, 2 light plates and 2 heavy plates treated with
(§9) for 60 minutes. After treatment, media was removed, and cells were washed with 15 mL PBS for 5
(§10) minutes. Cells were then harvested by scraping in cold PBS and lysed in the presence of Roche
(§11) complete protease inhibitors. Lysates were clarified by centrifugation at 10,000xg for 10 minutes and
(§12) the protein in the supernatant was quantified by BCA assay.
(§13) Proteomics assay: 1 mg of each lysate was diluted to 2mg/ml in PBS with Roche complete protease
(§14) inhibitors. To this was added 0.1 mM biotin-azide, 1 mM tris(2-carboxyethyl)phosphine (TCEP), 0.1
(§15) mM Tris((1-benzyl-4-triazolyl)methyl)amine (TBTA) ligand, and 1 mM CuSO4 in a final volume of
(§16) 0.5 mL. The reaction was incubated at room temperature for 1 hour and was vortexed every 15
(§17) minutes. After 1 hour, proteins are precipitated and are pelleted by centrifuging at 16,000xg for 4
(§18) min at 4 °C. The supernatants were discarded, and the pellets were solubilized with 0.5 mL cold
(§19) The cold methanol wash was then repeated, and the washed
(§20) pellets were resuspended in 1 mL of 1.2% SDS and sonicated until clear. The samples were heat
(§21) denatured at 80-90 °C for 5 minutes and any insoluble particles were removed by centrifugation at
(§22) 6,500xg for 5 minutes. The 1 mL supernatant was transferred to a 15 mL conical tubes containing 5
(§23) mL of PBS and 150 µL of washed neutravidin beads were added. The samples were incubated for 2
(§24) hours at 4 °C while rotating, at which point the samples were warmed to resolubilize any precipitated
(§25) SDS. The beads were pelleted by centrifugation at 1400xg for 3 min and washed for 10 minutes with
(§26) the following solutions: 2x 1% NP-40, 2x PBS + 1 M NaCl, and 2x 50 mM ammonium bicarbonate
(§27) (ABC) + 2 M urea. The beads were then transferred to a 1.5 mL microcentrifuge tube using 2x250
(§28) µL 100 mM Tris pH 8.0 + 4 M Guanidium hydrochloride (final volume 500 µL).

[2] = target: proteins of HEK293T cells transiently overexpressing caspase-6 (Homo sapiens, UniProt P11021)
Protocol: as §1, §2, §3, §4, §5, §6, §7, §8, §9, §10, §11, §12, §13, §14, §15, §16, §17, §18, §19, §20, §21, §22, §23, §24, §25, §26, §27, §28

[3] = target: proteins of HEK293T cells transiently overexpressing caspase-6 (Homo sapiens, UniProt P12956); details: Comp; protein XRCC6 P12956
Protocol: as §1, §2, §3, §4, §5, §6, §7, §8, §9, §10, §11, §12, §13, §14, §15, §16, §17, §18, §19, §20, §21, §22, §23, §24, §25, §26, §27, §28

[4] = target: proteins of HEK293T cells transiently overexpressing caspase-6 (Homo sapiens, UniProt P13667); details: Comp; protein PDIA4 P13667
Protocol: as §1, §2, §3, §4, §5, §6, §7, §8, §9, §10, §11, §12, §13, §14, §15, §16, §17, §18, §19, §20, §21, §22, §23, §24, §25, §26, §27, §28

[5] = target: proteins of HEK293T cells transiently overexpressing caspase-6 (Homo sapiens, UniProt P27695); details: Comp; protein APEX1 P27695
Protocol: as §1, §2, §3, §4, §5, §6, §7, §8, §9, §10, §11, §12, §13, §14, §15, §16, §17, §18, §19, §20, §21, §22, §23, §24, §25, §26, §27, §28

[6] = target: proteins of HEK293T cells transiently overexpressing caspase-6 (Homo sapiens, UniProt P36405)
Protocol: as §1, §2, §3, §4, §5, §6, §7, §8, §9, §10, §11, §12, §13, §14, §15, §16, §17, §18, §19, §20, §21, §22, §23, §24, §25, §26, §27, §28

[7] = target: proteins of HEK293T cells transiently overexpressing caspase-6 (Homo sapiens, UniProt P38606); details: Comp; protein ATP6V1A P38606
Protocol: as §1, §2, §3, §4, §5, §6, §7, §8, §9, §10, §11, §12, §13, §14, §15, §16, §17, §18, §19, §20, §21, §22, §23, §24, §25, §26, §27, §28

[8] = target: proteins of HEK293T cells transiently overexpressing caspase-6 (Homo sapiens, UniProt P39748); details: Comp; protein FEN1 P39748
Protocol: as §1, §2, §3, §4, §5, §6, §7, §8, §9, §10, §11, §12, §13, §14, §15, §16, §17, §18, §19, §20, §21, §22, §23, §24, §25, §26, §27, §28

[9] = target: proteins of HEK293T cells transiently overexpressing caspase-6 (Homo sapiens, UniProt P52272); details: Comp; protein HNRNPM P52272
Protocol: as §1, §2, §3, §4, §5, §6, §7, §8, §9, §10, §11, §12, §13, §14, §15, §16, §17, §18, §19, §20, §21, §22, §23, §24, §25, §26, §27, §28

[10] = target: T2, proteins of HEK293T cells transiently overexpressing caspase-6 (Homo sapiens, UniProt P62258); details: Comp; protein YWHAE P62258
T2 sequence (P62258 1-255): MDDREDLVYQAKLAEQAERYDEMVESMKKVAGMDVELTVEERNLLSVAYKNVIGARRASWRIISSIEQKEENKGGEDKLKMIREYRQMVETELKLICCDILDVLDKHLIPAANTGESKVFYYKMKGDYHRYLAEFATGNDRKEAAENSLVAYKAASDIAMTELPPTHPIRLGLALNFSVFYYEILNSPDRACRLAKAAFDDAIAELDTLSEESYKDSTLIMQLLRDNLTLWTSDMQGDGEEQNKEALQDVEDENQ
Protocol: as §1, §2, §3, §4, §5, §6, §7, §8, §9, §10, §11, §12, §13, §14, §15, §16, §17, §18, §19, §20, §21, §22, §23, §24, §25, §26, §27, §28

[11] = target: proteins of HEK293T cells transiently overexpressing caspase-6 (Homo sapiens, UniProt Q07666); details: Comp; protein KHDRBS1 Q07666
Protocol: as §1, §2, §3, §4, §5, §6, §7, §8, §9, §10, §11, §12, §13, §14, §15, §16, §17, §18, §19, §20, §21, §22, §23, §24, §25, §26, §27, §28

[12] = target: proteins of HEK293T cells transiently overexpressing caspase-6 (Homo sapiens, UniProt Q13347)
Protocol: as §1, §2, §3, §4, §5, §6, §7, §8, §9, §10, §11, §12, §13, §14, §15, §16, §17, §18, §19, §20, §21, §22, §23, §24, §25, §26, §27, §28

[13] = target: proteins of HEK293T cells transiently overexpressing caspase-6 (Homo sapiens, UniProt Q14204)
Protocol: as §1, §2, §3, §4, §5, §6, §7, §8, §9, §10, §11, §12, §13, §14, §15, §16, §17, §18, §19, §20, §21, §22, §23, §24, §25, §26, §27, §28

[14] = target: proteins of HEK293T cells transiently overexpressing caspase-6 (Homo sapiens, UniProt Q15185); details: Comp; protein PTGES3 Q15185
Protocol: as §1, §2, §3, §4, §5, §6, §7, §8, §9, §10, §11, §12, §13, §14, §15, §16, §17, §18, §19, §20, §21, §22, §23, §24, §25, §26, §27, §28

[15] = target: proteins of HEK293T cells transiently overexpressing caspase-6 (Homo sapiens, UniProt Q9NR30); details: Comp; protein DDX21 Q9NR30
Protocol: as §1, §2, §3, §4, §5, §6, §7, §8, §9, §10, §11, §12, §13, §14, §15, §16, §17, §18, §19, §20, §21, §22, §23, §24, §25, §26, §27, §28

[16] = protein SYNCRIP (O60506), Exp Comp, analysis C6, p 0.0625, 5 peptides
[17] = protein HSPA5 (P11021), Exp Comp, analysis C6, p 0.000244, 13 peptides
[18] = protein ARL3 (P36405), Exp Comp, analysis C6, p 0.1250, 5 peptides
[19] = protein EIF3I (Q13347), Exp Comp, analysis C6, p 0.0625, 5 peptides
[20] = protein DYNC1H1 (Q14204), Exp Comp, analysis C6, p 0.1250, 4 peptides

Sequence of proteins of HEK293T cells transiently overexpressing caspase-6 (Homo sapiens, UniProt Q13347) (Q13347 whole entry): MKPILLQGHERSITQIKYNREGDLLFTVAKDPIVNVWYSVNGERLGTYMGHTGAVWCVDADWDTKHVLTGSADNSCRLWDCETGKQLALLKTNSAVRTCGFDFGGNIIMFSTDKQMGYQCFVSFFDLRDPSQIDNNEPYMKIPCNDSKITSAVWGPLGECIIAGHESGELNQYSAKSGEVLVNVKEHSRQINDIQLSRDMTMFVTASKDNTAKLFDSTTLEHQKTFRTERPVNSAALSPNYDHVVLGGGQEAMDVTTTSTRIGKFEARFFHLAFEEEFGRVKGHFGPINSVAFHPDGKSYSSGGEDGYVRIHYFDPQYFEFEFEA
Sequence of proteins of HEK293T cells transiently overexpressing caspase-6 (Homo sapiens, UniProt Q14204) (Q14204 whole entry): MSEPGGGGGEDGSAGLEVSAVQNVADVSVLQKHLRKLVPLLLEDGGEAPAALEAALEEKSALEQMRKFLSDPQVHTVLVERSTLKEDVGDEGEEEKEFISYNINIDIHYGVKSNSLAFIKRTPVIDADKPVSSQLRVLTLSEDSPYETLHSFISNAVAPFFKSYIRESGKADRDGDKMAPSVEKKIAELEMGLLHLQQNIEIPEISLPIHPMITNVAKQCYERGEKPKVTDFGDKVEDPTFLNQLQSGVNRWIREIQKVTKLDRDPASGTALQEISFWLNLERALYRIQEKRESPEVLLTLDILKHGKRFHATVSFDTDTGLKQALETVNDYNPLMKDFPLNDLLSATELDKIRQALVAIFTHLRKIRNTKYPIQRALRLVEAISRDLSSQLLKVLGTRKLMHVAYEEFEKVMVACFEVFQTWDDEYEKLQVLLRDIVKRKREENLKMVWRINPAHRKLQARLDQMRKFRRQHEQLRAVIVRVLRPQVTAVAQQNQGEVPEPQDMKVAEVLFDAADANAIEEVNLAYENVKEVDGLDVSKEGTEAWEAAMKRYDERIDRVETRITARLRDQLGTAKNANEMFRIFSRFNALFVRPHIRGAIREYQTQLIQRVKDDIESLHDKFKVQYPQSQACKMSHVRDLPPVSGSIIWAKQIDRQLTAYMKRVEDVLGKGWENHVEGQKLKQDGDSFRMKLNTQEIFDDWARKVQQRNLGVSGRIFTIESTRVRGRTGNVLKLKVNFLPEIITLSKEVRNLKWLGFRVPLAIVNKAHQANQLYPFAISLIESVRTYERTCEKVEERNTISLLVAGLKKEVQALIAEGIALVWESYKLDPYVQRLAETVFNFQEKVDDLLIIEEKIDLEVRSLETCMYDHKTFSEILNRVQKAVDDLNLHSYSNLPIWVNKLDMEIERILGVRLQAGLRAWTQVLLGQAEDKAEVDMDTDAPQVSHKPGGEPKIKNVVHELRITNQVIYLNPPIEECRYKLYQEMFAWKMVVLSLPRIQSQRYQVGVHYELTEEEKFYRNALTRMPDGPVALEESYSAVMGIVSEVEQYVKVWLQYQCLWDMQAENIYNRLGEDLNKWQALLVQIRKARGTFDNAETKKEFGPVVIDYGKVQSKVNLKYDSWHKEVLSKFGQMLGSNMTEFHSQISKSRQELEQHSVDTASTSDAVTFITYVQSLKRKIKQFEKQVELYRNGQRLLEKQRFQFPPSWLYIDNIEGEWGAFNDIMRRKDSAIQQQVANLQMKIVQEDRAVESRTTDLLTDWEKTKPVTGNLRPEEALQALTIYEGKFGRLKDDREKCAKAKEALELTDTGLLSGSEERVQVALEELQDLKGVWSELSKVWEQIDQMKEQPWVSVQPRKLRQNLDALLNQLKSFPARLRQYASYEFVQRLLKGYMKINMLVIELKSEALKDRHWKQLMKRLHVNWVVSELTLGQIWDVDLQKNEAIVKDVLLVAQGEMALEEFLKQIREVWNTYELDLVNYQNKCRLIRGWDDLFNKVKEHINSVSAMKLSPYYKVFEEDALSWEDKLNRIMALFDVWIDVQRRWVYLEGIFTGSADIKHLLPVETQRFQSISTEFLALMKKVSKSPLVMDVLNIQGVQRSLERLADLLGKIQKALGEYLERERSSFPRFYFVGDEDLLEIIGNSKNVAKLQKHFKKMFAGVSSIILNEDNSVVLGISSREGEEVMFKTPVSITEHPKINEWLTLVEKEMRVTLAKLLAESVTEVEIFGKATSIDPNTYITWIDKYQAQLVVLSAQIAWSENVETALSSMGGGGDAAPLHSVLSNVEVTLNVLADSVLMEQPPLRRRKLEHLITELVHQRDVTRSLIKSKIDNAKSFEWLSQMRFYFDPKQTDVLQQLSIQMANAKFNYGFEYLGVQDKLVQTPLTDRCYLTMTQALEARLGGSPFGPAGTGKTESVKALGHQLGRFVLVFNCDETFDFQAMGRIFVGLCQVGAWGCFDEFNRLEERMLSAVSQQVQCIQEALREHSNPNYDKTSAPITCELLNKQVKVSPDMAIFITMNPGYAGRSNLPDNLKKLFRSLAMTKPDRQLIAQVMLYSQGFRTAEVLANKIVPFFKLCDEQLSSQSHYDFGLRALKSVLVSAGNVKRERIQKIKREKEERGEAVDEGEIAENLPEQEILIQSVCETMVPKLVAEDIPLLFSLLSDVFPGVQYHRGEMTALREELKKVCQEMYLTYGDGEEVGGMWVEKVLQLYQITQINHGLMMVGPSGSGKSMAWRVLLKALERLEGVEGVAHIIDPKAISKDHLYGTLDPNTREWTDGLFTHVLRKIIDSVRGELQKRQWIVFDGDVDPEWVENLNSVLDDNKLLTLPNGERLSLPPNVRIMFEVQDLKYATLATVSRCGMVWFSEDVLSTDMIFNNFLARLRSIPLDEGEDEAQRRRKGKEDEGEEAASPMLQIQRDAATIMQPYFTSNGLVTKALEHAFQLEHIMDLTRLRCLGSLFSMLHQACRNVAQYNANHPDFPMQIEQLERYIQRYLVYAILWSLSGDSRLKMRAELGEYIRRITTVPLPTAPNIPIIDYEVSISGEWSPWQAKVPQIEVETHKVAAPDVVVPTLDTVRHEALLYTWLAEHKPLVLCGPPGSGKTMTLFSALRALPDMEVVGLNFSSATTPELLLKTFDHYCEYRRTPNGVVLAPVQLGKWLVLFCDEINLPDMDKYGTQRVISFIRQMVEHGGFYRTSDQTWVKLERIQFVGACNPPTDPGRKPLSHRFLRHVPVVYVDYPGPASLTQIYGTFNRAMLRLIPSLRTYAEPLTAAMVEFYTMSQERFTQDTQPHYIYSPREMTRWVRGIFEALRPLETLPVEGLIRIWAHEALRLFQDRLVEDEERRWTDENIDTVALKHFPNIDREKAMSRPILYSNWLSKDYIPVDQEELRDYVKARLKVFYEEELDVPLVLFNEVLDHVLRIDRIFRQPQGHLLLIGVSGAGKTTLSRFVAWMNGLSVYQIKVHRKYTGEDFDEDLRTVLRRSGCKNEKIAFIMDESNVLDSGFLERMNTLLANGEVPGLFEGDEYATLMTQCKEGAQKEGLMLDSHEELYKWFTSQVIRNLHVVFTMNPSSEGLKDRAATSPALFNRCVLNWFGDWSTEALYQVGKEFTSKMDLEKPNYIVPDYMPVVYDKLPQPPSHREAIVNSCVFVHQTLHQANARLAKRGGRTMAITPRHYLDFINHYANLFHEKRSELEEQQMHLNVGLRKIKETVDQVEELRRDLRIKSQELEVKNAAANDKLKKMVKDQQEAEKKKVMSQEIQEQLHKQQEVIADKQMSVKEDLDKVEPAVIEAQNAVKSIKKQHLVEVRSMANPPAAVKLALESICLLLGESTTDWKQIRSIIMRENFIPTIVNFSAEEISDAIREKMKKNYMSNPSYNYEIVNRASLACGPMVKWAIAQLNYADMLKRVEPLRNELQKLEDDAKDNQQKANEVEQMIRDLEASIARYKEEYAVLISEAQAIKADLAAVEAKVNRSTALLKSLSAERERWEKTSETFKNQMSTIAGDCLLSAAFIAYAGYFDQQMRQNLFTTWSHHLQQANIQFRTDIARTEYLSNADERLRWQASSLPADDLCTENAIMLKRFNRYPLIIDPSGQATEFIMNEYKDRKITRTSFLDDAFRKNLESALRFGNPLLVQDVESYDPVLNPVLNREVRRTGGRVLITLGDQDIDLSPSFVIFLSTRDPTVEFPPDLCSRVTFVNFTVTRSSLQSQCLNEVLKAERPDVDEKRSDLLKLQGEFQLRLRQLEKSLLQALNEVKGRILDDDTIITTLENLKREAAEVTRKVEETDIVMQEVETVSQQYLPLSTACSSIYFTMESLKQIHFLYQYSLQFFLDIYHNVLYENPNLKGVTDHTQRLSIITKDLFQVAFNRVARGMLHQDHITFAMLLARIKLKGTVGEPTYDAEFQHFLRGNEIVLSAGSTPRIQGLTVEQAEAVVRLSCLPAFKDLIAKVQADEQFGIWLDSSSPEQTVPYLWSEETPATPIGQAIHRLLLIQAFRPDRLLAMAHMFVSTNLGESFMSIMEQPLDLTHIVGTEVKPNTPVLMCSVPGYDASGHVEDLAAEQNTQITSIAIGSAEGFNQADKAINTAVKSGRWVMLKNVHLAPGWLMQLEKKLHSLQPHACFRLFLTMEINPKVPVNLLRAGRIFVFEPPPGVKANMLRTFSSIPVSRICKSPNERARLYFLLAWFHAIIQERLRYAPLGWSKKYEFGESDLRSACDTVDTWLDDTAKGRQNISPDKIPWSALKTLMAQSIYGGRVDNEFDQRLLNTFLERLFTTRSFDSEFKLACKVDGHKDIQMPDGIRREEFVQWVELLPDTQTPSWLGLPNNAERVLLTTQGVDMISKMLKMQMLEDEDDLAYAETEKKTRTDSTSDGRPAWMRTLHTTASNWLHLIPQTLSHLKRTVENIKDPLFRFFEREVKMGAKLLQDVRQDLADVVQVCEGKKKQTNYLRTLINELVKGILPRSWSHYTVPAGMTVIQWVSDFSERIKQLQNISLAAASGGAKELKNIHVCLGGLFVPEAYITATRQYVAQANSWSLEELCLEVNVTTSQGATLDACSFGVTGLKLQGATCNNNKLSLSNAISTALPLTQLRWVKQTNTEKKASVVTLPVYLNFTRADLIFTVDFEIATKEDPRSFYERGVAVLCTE
Sequence of proteins of HEK293T cells transiently overexpressing caspase-6 (Homo sapiens, UniProt P36405) (P36405 whole entry): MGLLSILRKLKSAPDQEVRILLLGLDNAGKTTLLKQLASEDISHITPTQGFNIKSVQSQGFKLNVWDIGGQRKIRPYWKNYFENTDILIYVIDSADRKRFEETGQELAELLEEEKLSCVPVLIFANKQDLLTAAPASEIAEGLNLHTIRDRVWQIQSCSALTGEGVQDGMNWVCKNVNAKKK

SMILES: C=CS(=O)(=O)N1C[C@H](C(=O)Nc2ccc(OC(F)(F)F)cc2)C[C@@H](c2ccccc2)C1 [3a]
- enrich.exp.med ([1]; Comp, protein SYNCRIP O60506): 1.48
- enrich.exp.med.lin [1, 16]: 2.7903
- enrich.exp.med.log2 [1, 16]: 1.48
- enrich.exp.med ([2]; Comp, protein HSPA5 P11021): 1.086
- enrich.exp.med.lin [2, 17]: 2.123
- enrich.exp.med.log2 [2, 17]: 1.086
- enrich.exp.med [3]: 0.7902
- enrich.exp.med [4]: 0.6419
- enrich.exp.med [5]: 0.6367
- enrich.exp.med ([6]; Comp, protein ARL3 P36405): 1.0898
- enrich.exp.med.lin [6, 18]: 2.128
- enrich.exp.med.log2 [6, 18]: 1.0898
- enrich.exp.med [7]: 0.8033
- enrich.exp.med [8]: 0.6295
- enrich.exp.med [9]: 0.6442
- enrich.exp.med [10]: 0.6349
- enrich.exp.med [11]: 0.748
- enrich.exp.med ([12]; Comp, protein EIF3I Q13347): 1.022
- enrich.exp.med.lin [12, 19]: 2.03
- enrich.exp.med.log2 [12, 19]: 1.022
- enrich.exp.med ([13]; Comp, protein DYNC1H1 Q14204): 1.335
- enrich.exp.med.lin [13, 20]: 2.5227
- enrich.exp.med.log2 [13, 20]: 1.335
- enrich.exp.med [14]: 0.8422
- enrich.exp.med [15]: 0.6506
